The values below come from patent publication US20140342913A1, “GENES PROVIDING TOLERANCE TO PDS INHIBITORS” (SYNGENTA PARTICIPATIONS AG, priority 2013, published 2014).

The assay has as its system 18900 transformants (soybean plants). The assay can be described thus: Herbicide resistance of soybean transformants with stacked ADSS Q289N gene. In kind it is in vivo. As to conditions: soybean transformed with 18900 (Rhodobacter CrtI + Arabidopsis ADSS Q289N). The text has this:
In order to test expression of stacked genes when phytoene desaturease is used as selectable marker, we constructed several vectors with Anemonia majano cyan fluorescent protein gene AmCyan and herbicide resistance (ADSS) or detoxification (cytochrome P450) genes as examples. Binary transformation vector 18340 (FIG. 7) contains Gloeobacter CrtI expression cassette linked to an AmCyan expression cassette. 18340 was derived from insertion of prCMP-AmCyan-tNOS cassette into 18239. Similarly, binary transformation vector 18341 (FIG. 8) contains Rhodobacter CrtI and AmCyan expression cassettes and was constructed by inserting the prCMP-AmCyan-tNOS cassette into 18238. 18900 (FIG. 9) is a binary vector containing Rhodobacter CrtI expression cassette linked with an Arabidopsis adenylosuccinate synthase (ADSS) Q289N mutant expression cassette under the control of prCMP promoter. 18932 (FIG. 10) is a binary vector containing Rhodobacter CrtI expression cassette and an expression cassette for rice cytochrome P450 monooxygenase gene (Genbank accession # OSJNBb0048A17.18) under the control of prCMP promoter. […]
Binary vectors 18340, […], 18900 and 18932 were transformed into soybean plants using norfurazon as selection agent. […] 18932 transformants were evaluated for their resistance against HPPD herbicide mesotrione.

As for `O=C1NC(=O)[C@]2(N1)O[C@H](CO)[C@@H](O)[C@H]2O` [hydantocidin], the “resistance of transformants to herbicidal compound” value was “resistant”.
